The record followed here is ChEMBL document CHEMBL1132414, “New bicyclam-AZT conjugates: design, synthesis, anti-HIV evaluation, and their interaction with CXCR-4 coreceptor” (J Med Chem, 1999).

Some results are limits rather than exact numbers.

Usually logP stands for the decadic logarithm of the partition coefficient of the neutral form, usually between octanol and water. High values mean higher lipophilicity, low ones lower lipophilicity. A word on the CC50: it is the concentration giving 50% cytotoxicity. Higher therefore signals lower toxicity to the cells. What is called EC50 is the concentration needed to bring the measured effect to its halfway point. Read a low EC50 as higher potency in that assay.

A short description of one data set: physchem. The conditions noted are these: octanol/water.
The nature of the next data set: in vitro. Conditions: human, uninfected MT-4 cells.
In data set [1] the test system is Human immunodeficiency virus 1. Briefly: microbe, parasite or virus in culture. The conditions noted are these: Human immunodeficiency virus 1, MT4.
Description: Concentration required to inhibit syncytia formation by 50% on HIV-1 infected MT-4 cells
For data set [2] the following is noted: octanol/water.
Description: Partition coefficient (logP)

Description for in vitro: Concentration required to cause 50% death of uninfected MT-4 cells
Description for physchem: Partition coefficient (logP)

For the molecule `Cc1cn(C2CC(N=[N+]=[N-])C(COC(=O)CCCCN3CCCNCCNCCCNCC3)O2)c(=O)[nH]c1=O` (stereo not given), in “physchem”, the logP is -0.21. The molecule also displayed a CC50 in “in vitro” of 30 µM. The EC50 in data set [1] was 0.01 µM.
In the case of `O=C(c1ccc(C(=O)N2CCCNCCNCCCNCC2)cc1)N1CCCNCCNCCCNCC1`, the logP in “physchem” was -2.11. The molecule also displayed a CC50 in the data set “in vitro” of 100 µM. This molecule returned an EC50 in data set [1] of 50 µM.
`CC(C)(C)OC(=O)N1CCCN(C(=O)OC(C)(C)C)CCN(C(=O)OC(C)(C)C)CCCN(C(=O)CCCC(=O)N2CCCN(C(=O)OC(C)(C)C)CCN(C(=O)OC(C)(C)C)CCCN(C(=O)OC(C)(C)C)CC2)CC1` came in with a logP in “physchem” of 6.14. Besides, in “in vitro”, half-maximal cytotoxicity (CC50) was put at 10 µM. This molecule gave a concentration for a half-maximal effect (EC50) in data set [1] above 50 µM.
`Cc1cn(C2CC(N=[N+]=[N-])C(COC(=O)CCCCN3CCCN(Cc4ccc(CN5CCCN(C(=O)OC(C)(C)C)CCN(C(=O)OC(C)(C)C)CCCN(C(=O)OC(C)(C)C)CC5)cc4)CCN(C(=O)OC(C)(C)C)CCCN(C(=O)OC(C)(C)C)CC3)O2)c(=O)[nH]c1=O` (stereo not given) registered a logP in “physchem” of 5.7. For the same molecule, the CC50 in “in vitro” worked out at 5 µM. In data set [1], this molecule displayed an EC50 of 0.005 µM.
The like results for `Cc1cn(C2CC(N=[N+]=[N-])C(COC(=O)CCCCN3CCCN(Cc4ccc(CN5CCCNCCNCCCNCC5)cc4)CCNCCCNCC3)O2)c(=O)[nH]c1=O` (stereo not given) were, in that order, 1.65, 75 µM and 0.005 µM.
The corresponding values for `CC(C)(C)OC(=O)N1CCCN(C(=O)OC(C)(C)C)CCN(C(=O)OC(C)(C)C)CCCN(Cc2ccc(CN3CCCN(C(=O)OC(C)(C)C)CCN(C(=O)OC(C)(C)C)CCCN(C(=O)OC(C)(C)C)CC3)cc2)CC1` are 6.47, 5 µM and 0.5 µM.
The like results for `Cc1cn(C2CC(N=[N+]=[N-])C(COC(=O)CCCCN3CCCN(C(=O)CCCC(=O)N4CCCN(C(=O)OC(C)(C)C)CCN(C(=O)OC(C)(C)C)CCCN(C(=O)OC(C)(C)C)CC4)CCN(C(=O)OC(C)(C)C)CCCN(C(=O)OC(C)(C)C)CC3)O2)c(=O)[nH]c1=O` (stereo not given) were, in that order, 5.85, 5 µM and 0.05 µM.
`Cc1cn(C2CC(N=[N+]=[N-])C(COC(=O)CCCCN3CCCN(C(=O)CCCC(=O)N4CCCNCCNCCCNCC4)CCNCCCNCC3)O2)c(=O)[nH]c1=O` (stereo not given) gave a logP in “physchem” of 1.81. The molecule further showed a CC50 in “in vitro” of 75 µM. In data set [1], the EC50 was 0.05 µM.
`CC(C)(C)OC(=O)N1CCCN(C(=O)OC(C)(C)C)CCN(C(=O)c2ccc(C(=O)N3CCCN(C(=O)OC(C)(C)C)CCN(C(=O)OC(C)(C)C)CCCN(C(=O)OC(C)(C)C)CC3)cc2)CCCN(C(=O)OC(C)(C)C)CC1`: in the data set “physchem”, the logP came out at 3.46. Also, the CC50 in “in vitro” amounted to 10 µM. In data set [1], this molecule yielded an EC50 of 1 µM.
With `Cc1cn(C2CC(N=[N+]=[N-])C(COC(=O)CCCC(=O)N3CCCNCCNCCCNCC3)O2)c(=O)[nH]c1=O` (stereo not given), in the data set “physchem”, the logP worked out at 0.14. In the data set “in vitro”, this molecule registered a CC50 of 100 µM. In data set [1], this molecule had an EC50 of 0.01 µM.
On to `Cc1cn(C2CC(N=[N+]=[N-])C(COC(=O)CCCC(=O)N3CCCN(C(=O)OC(C)(C)C)CCN(C(=O)OC(C)(C)C)CCCN(C(=O)OC(C)(C)C)CC3)O2)c(=O)[nH]c1=O` (stereo not given), for which the lipophilicity (logP) in “physchem” turned out to be 2.68. The half-maximal cytotoxic concentration (CC50) in the data set “in vitro” stood at 50 µM. This molecule also showed a 50% effective concentration (EC50) in data set [1] of 0.05 µM.
Molecule `c1cc(CN2CCCNCCNCCCNCC2)ccc1CN1CCCNCCNCCCNCC1` [PLERIXAFOR] returned a logP in data set [2] of 0.89. Further, it took 50 µM to reach half-maximal cytotoxicity in “in vitro” (CC50). The EC50 in data set [1] is 10 µM.
`O=C(CCCC(=O)N1CCCNCCNCCCNCC1)N1CCCNCCNCCCNCC1` had a logP in the data set “physchem” of 1.05. Further, in the data set “in vitro”, the midpoint of cytotoxicity, the CC50, lay at 50 µM. This molecule yielded an EC50 in data set [1] of 10 µM.
In the data set “physchem”, `Cc1cn(C2CC(N=[N+]=[N-])C(COC(=O)CCCCN3CCCN(C(=O)c4ccc(C(=O)N5CCCN(C(=O)OC(C)(C)C)CCN(C(=O)OC(C)(C)C)CCCN(C(=O)OC(C)(C)C)CC5)cc4)CCN(C(=O)OC(C)(C)C)CCCN(C(=O)OC(C)(C)C)CC3)O2)c(=O)[nH]c1=O` (stereo not given) showed a logP of 2.69. In addition, the CC50 in the data set “in vitro” stood at 0.5 µM. Also, the EC50 in data set [1] came out at 0.03 µM.
`Cc1cn(C2CC(N=[N+]=[N-])C(COC(=O)CCCCN3CCCN(C(=O)c4ccc(C(=O)N5CCCNCCNCCCNCC5)cc4)CCNCCCNCC3)O2)c(=O)[nH]c1=O` (stereo not given): the logP in the data set “physchem” was -1.35. In “in vitro”, this molecule returned a CC50 of 75 µM. For the same molecule, in data set [1], the EC50 came out at 0.01 µM.
